Experiments:
[1] = Thermal stability test (residual rate of compound (I) by HPLC); type: physicochemical
Method: The test compound was placed in a glass bottle and allowed to stand under the following conditions (1) and (2).
(1): Closed state, 60° C.;
The measurement conditions in high performance liquid chromatography are as follows.
Column: L-column ODS [4.6 mm×250 mm, manufactured by Chemicals Evaluation and Research Institute, Japan]
Column temperature: 40° C.
Detection wavelength: 220 nm
The residual rate (%) was calculated by the following formula.
The residual rate (%)=[1−(sum of peak area percentages of impurities and decomposed products)]×100

[2] = Absorbability test in dog; type: in vivo; conditions: fasted male beagle, ranitidine pretreated, oral 10 mg/body in 0.5% methyl cellulose, plasma; for AUC(0-t): read-out: AUC0-24 h
Method: Ranitidine (2.5 mg/kg) was intramuscularly injected to the posterior region of thigh of a fasted male beagle (body weight: about 10 kg, n=6) to make the intragastric pH acidic 30 minutes before, immediately before and 30 minutes after administration of the test compound. The test compound was suspended in a 0.5% methyl cellulose solution at a dose of 10 mg/body and orally administered. About 3 ml of blood was collected from the median antebrachial vein using a heparin-treated glass syringe 0.5, 1, 2, 3, 4, 6, 8 and 24 hours after the administration. The collected blood was centrifuged to obtain plasma which was cryopreserved at −20° C. until measurement of the concentration of the test compound. One hundred μl of thawed plasma was mixed with 300 μl of an internal standard solution [a methanol solution of the d3-compound (Ia), 5 ng/ml] and centrifuged. The supernatant was filtered through a filter and the filtrate was analyzed by LC/MS/MS.
A calibration curve was prepared by the same operation as above using each 100 μl of a calibration curve standard solution [a methanol solution of the compound (Ia), 0.5-400 ng/ml] which had been adjusted to respective concentrations in place of 100 μl of dog plasma.
The LC/MS/MS analysis conditions are shown below.
The area under the concentration in plasma-time curve (AUC0-24h) and the maximum concentration in plasma (Cmax) as pharmacokinetic parameters indicative of drug absorbability were calculated from the results obtained according to the aforementioned method using the compounds of Example 1, Example 2 (2C) and Comparative Example 4 as test compounds.

[3] = Condition (1): closed state, 60° C., 1 month
[4] = Condition (1): closed state, 60° C., 1 week
[5] = Condition (1): closed state, 60° C., time 0
[6] = Condition (2): non-closed state, 40° C., humidity 75%, 1 week
[7] = Condition (2): non-closed state, 40° C., humidity 75%, time 0
[8] = Condition (1): closed state, 60° C., 3 months
[9] = Condition (2): non-closed state, 40° C., humidity 75%, 1 month

Row | Molecule | Residual rate of Compound (I) (%) [1, 3] [%] | Residual rate of Compound (I) (%) [1, 4] [%] | Residual rate of Compound (I) (%) [1, 5] [%] | Residual rate of Compound (I) (%) [1, 6] [%] | Residual rate of Compound (I) (%) [1, 7] [%] | Cmax [2] [µg/mL] | AUC(0-t) [2] [µg·h/mL] | Residual rate of Compound (I) (%) [1, 8] [%] | Residual rate of Compound (I) (%) [1, 9] [%] | further results
1 | CC1=C(C(=O)OC(C)C)[C@@H](c2cccc([N+](=O)[O-])c2)C(C(=O)OC2CN(C(c3ccccc3)c3ccccc3)C2)=C(N)N1.O=S(=O)(O)O [Comparative Example 2, (R)-2-Amino-1,4-dihydro-6-methyl-4-(3-nitrophenyl)-3,5-pyridinedicarboxylic Acid 3-(1-diphenylmethylazetidin-3-yl) Ester 5-isopropyl Ester Monosulfate, reference compound] | 24.3 | 25.0 | 93.1 | 8.9 | 93.1 | – | – | – | – | –
2 | CC1=C(C(=O)OC(C)C)[C@@H](c2cccc([N+](=O)[O-])c2)C(C(=O)OC2CN(C(c3ccccc3)c3ccccc3)C2)=C(N)N1 [Comparative Example 4, (R)-2-Amino-1,4-dihydro-6-methyl-4-(3-nitrophenyl)-3,5-pyridinedicarboxylic Acid 3-(1-diphenylmethylazetidin-3-yl) Ester 5-isopropyl Ester, reference compound] | – | – | – | – | – | 0.161 | 1.5 | – | – | –
3 | CC1=C(C(=O)OC(C)C)[C@@H](c2cccc([N+](=O)[O-])c2)C(C(=O)OC2CN(C(c3ccccc3)c3ccccc3)C2)=C(N)N1.Cl.Cl.O.O [Example 1, (R)-2-Amino-1,4-dihydro-6-methyl-4-(3-nitro-phenyl)-3,5-pyridinedicarboxylic Acid 3-(1-diphenylmethyl-azetidin-3-yl) Ester 5-isopropyl Ester Dihydrochloride dihydrate] | 95.3 | 96.6 | 99.4 | 97.8 | 99.4 | 0.168 | 1.66 | 92.0 | 96.0 | Residual rate of Compound (I) (%) ([1]; Condition (2): non-closed state, 40° C., humidity 75%, 3 months): 94.1%
4 | Br.Br.CC1=C(C(=O)OC(C)C)[C@@H](c2cccc([N+](=O)[O-])c2)C(C(=O)OC2CN(C(c3ccccc3)c3ccccc3)C2)=C(N)N1.O.O [Example 2, (R)-2-Amino-1,4-dihydro-6-methyl-4-(3-nitro-phenyl)-3,5-pyridinedicarboxylic Acid 3-(1-diphenylmethyl-azetidin-3-yl) Ester 5-isopropyl Ester Dihydrobromide dihydrate] | 94.2 | – | 99.8 | 95.5 | 99.8 | 0.23 | 1.93 | – | 92.1 | Residual rate of Compound (I) (%) ([1]; Condition (1): closed state, 60° C., 1 month, listed as Example 2A, Dihydrobromide dihydrate): 99.7%; Residual rate of Compound (I) (%) ([1]; Condition (1): closed state, 60° C., 1 week, listed as Example 2A, Dihydrobromide dihydrate): 99.8%; Residual rate of Compound (I) (%) ([1]; Condition (1): closed state, 60° C., 1 week, listed as Example 2C, Dihydrobromide dihydrate): 95.0%; Residual rate of Compound (I) (%) ([1]; Condition (1): closed state, 60° C., 3 months, listed as Example 2A, Dihydrobromide dihydrate): 99.7%; Residual rate of Compound (I) (%) ([1]; Condition (1): closed state, 60° C., 3 months, listed as Example 2C, Dihydrobromide dihydrate): 94.5%; Residual rate of Compound (I) (%) ([1]; Condition (1): closed state, 60° C., time 0, listed as Example 2C, Dihydrobromide dihydrate): 99.1%; Residual rate of Compound (I) (%) ([1]; Condition (2): non-closed state, 40° C., humidity 75%, 1 month, listed as Example 2A, Dihydrobromide dihydrate): 99.6%; Residual rate of Compound (I) (%) ([1]; Condition (2): non-closed state, 40° C., humidity 75%, 1 week, listed as Example 2A, Dihydrobromide dihydrate): 99.7%; Residual rate of Compound (I) (%) ([1]; Condition (2): non-closed state, 40° C., humidity 75%, 3 months, listed as Example 2A, Dihydrobromide dihydrate): 99.4%; Residual rate of Compound (I) (%) ([1]; Condition (2): non-closed state, 40° C., humidity 75%, 3 months, listed as Example 2C, Dihydrobromide dihydrate): 90.6%; Residual rate of Compound (I) (%) ([1]; Condition (2): non-closed state, 40° C., humidity 75%, time 0, listed as Example 2C, Dihydrobromide dihydrate): 99.1%
5 | CC1=C(C(=O)OC(C)C)[C@@H](c2cccc([N+](=O)[O-])c2)C(C(=O)OC2CN(C(c3ccccc3)c3ccccc3)C2)=C(N)N1.CS(=O)(=O)O.CS(=O)(=O)O [Comparative Example 3, (R)-2-Amino-1,4-dihydro-6-methyl-4-(3-nitrophenyl)-3,5-pyridinedicarboxylic Acid 3-(1-diphenylmethylazetidin-3-yl) Ester 5-isopropyl Ester Dimethanesulfonate, reference compound] | 90.0 | 93.2 | 99.3 | 0.1 | 99.3 | – | – | 84.1 | 0.0 | –
6 | (R)-2-Amino-1,4-dihydro-6-methyl-4-(3-nitrophenyl)-3,5-pyridinedicarboxylic acid 3-(1-diphenylmethylazetidin-3-yl) ester 5-isopropyl Ester Disulfate Dihydrate [Comparative Example 1, reference compound] | 0.4 | 68.0 | 99.3 | 96.8 | 99.3 | – | – | – | 84.4 | –

From patent publication US20090170826A1, “Acid Addition Salt of Optically Active Dihydropyridine Derivative” (Daiichi Sankyo Company ,Limited, priority 2005, published 2009)
